# According to patent publication US10336729B2, “4-cyano-benzyl carbamimidoylcarbamate derivatives and their use as AOC3 inhibitors” (Boehringer Ingelheim International GmbH, priority 2016, dated 2019):
# Molecular target: AOC3 (Homo sapiens (Human), UniProt Q16853)
# Assay: MAO-Glo AOC3 assay
# Type: biochemical
# Conditions: recombinant CHO cells overexpressing AOC3 enzyme
# Source text: The MAO-Glo™ Assay (commercial available from PROMEGA, #V1402) provides a sensitive method for the measurement of monoamine oxidase (MAO) activity (Valley, M. P. et al., 2006, Anal. Biochem. 359: 238-246) from a variety of tissues, biofluids or recombinant expressed or purified enzymes. As substrate a derivate of the beetle luciferin ((4S)-4,5-dihydro-2-(6-hydroxybenzothiazolyl)-4-thiazole-carboxylic acid) is used, which is oxidized at a primary amine moiety. After a spontaneous elimination and a catalyzed esterase reaction, the turnover of the luciferine by the luciferase is recorded as a signal of AOC3 activity.
# An aliquot of 3 μL of the compound dilution is added to a 384 well plate (Optiplate, PS, flat bottom, white, PERKIN ELMER, #6007290) with a final DMSO concentration of 6.6%. Recombinant CHO cells, overexpressing the human (1500 cells/well), mouse (1000 cells/well) or rat (500 cells/well) AOC3 enzyme are diluted in reaction buffer and added in a volume of 15 μL to the wells. After incubation for 20 minutes at 37° C., 2 μL of MAO substrate (dissolved in DMSO at 16 mM, adjusted to assay concentration in reaction buffer to a final assay concentration of 20 μM) is added and further incubated for 60 minutes at 37° C. The turnover of the substrate is determined by the addition of 20 μL of the detection-mix which was generated by the addition of reconstitution buffer with esterase (PROMEGA, #V1402) to the luciferine detection reagent (PROMEGA, #V1402). After an incubation period of 20 minutes, the luminescent signal is measured with Envision 2104 Multilabel Reader (PERKIN ELMER).
# Sequence of AOC3 (Q16853 whole entry): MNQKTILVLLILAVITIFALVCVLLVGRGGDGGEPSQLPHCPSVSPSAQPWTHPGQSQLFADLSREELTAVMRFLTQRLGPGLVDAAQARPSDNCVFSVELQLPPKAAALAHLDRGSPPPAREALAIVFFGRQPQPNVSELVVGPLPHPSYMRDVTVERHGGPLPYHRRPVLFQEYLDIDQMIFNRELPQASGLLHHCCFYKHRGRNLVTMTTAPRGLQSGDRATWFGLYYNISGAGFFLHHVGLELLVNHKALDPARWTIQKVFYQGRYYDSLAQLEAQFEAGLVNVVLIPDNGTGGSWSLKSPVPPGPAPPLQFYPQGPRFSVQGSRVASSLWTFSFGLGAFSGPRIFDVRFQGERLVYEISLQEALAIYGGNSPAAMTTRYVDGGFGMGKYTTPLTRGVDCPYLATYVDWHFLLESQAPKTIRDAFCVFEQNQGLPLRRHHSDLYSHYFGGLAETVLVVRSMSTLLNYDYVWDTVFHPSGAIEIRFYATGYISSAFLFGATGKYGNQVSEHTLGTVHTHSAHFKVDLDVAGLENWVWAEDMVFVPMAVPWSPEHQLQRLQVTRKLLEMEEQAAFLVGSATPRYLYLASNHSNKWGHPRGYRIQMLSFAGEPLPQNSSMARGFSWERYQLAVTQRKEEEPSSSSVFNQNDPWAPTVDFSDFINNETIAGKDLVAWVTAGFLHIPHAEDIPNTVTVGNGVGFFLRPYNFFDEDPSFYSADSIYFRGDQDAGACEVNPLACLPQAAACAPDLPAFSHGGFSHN
row,Structure (SMILES),IC50 [µM]
1,N#Cc1ccc(COC(=O)NC(=N)N)c(F)c1N1CCN(c2ccncn2)CC1 [Example 1.001],0.007
2,CS(=O)(=O)c1ccc(N2CCN(c3c(C#N)ccc(COC(=O)NC(=N)N)c3F)CC2)cc1 [Example 1.002],0.006
3,CC(=O)N1CCN(C2CCN(c3c(C#N)ccc(COC(=O)NC(=N)N)c3F)CC2)CC1 [Example 1.003],0.067
4,CS(=O)(=O)N1CCC(C2CN(c3c(C#N)ccc(COC(=O)NC(=N)N)c3F)C2)CC1 [Example 1.004],0.024
5,N#Cc1ccc(COC(=O)NC(=N)N)c(F)c1N1CCN(c2ccnnc2)CC1 [Example 1.006],0.005
6,N#Cc1ccc(COC(=O)NC(=N)N)c(F)c1N1CCN(c2cnccn2)CC1 [Example 1.007],0.01
7,CC(=O)N1CCC(N2CCN(c3c(C#N)ccc(COC(=O)NC(=N)N)c3F)CC2)CC1 [Example 1.008],0.397
8,N#Cc1ccc(N2CCN(c3c(C#N)ccc(COC(=O)NC(=N)N)c3F)CC2)cc1 [Example 1.009],0.003
9,CC(=O)N1CCC(C2CN(c3c(C#N)ccc(COC(=O)NC(=N)N)c3F)C2)CC1 [Example 1.010],0.025
10,N#Cc1ccc(COC(=O)NC(=N)N)c(F)c1N1CCCN(c2cccnc2)CC1 [Example 1.011],0.095
11,N#Cc1ccc(COC(=O)NC(=N)N)c(F)c1N1CCN(c2cccnc2)CC1 [Example 1.012],0.006
12,N#Cc1ccc(C2CN(c3c(C#N)ccc(COC(=O)NC(=N)N)c3F)C2)cc1 [Example 1.013],0.019
13,CC(=O)N1CCC(C2CCN(c3c(C#N)ccc(COC(=O)NC(=N)N)c3F)CC2)CC1 [Example 1.014],0.004
14,CC(=O)N[C@@H](C)c1ccc(C2CN(c3c(C#N)ccc(COC(=O)NC(=N)N)c3F)C2)cc1 [Example 1.015],0.019
15,CCOc1cc(C2CCN(c3c(C#N)ccc(COC(=O)NC(=N)N)c3F)CC2)ccn1 [Example 1.016],0.012
16,CS(=O)(=O)N1CCC(C2CCN(c3c(C#N)ccc(COC(=O)NC(=N)N)c3F)CC2)CC1 [Example 1.017],0.005
17,CN1CCN(C2CCN(c3c(C#N)ccc(COC(=O)NC(=N)N)c3F)CC2)CC1=O [Example 1.018],0.169
18,N#Cc1ccc(COC(=O)NC(=N)N)c(F)c1N1CCC(c2ccncc2)C1 (centres unmarked) [Example 1.019],0.017
19,COc1ncc(N2CCN(c3cc(COC(=O)NC(=N)N)cc(F)c3C#N)CC2)cn1 [Example 1.020],0.07
20,COc1cccc(N2CCN(c3c(C#N)ccc(COC(=O)NC(=N)N)c3F)CC2)c1 [Example 1.021],0.021
21,N#Cc1cccc(C2CCN(c3c(C#N)ccc(COC(=O)NC(=N)N)c3F)CC2)c1 [Example 1.022],0.005
22,N#Cc1ccc(COC(=O)NC(=N)N)c(F)c1N1CCC(N2CCC(C(N)=O)CC2)CC1 [Example 1.024],0.05
23,N#Cc1ccc(COC(=O)NC(=N)N)c(F)c1N1CCC(c2cn3ccccc3n2)CC1 [Example 1.025],0.005
24,CN(C)C(=O)c1ccc(N2CCN(c3c(C#N)ccc(COC(=O)NC(=N)N)c3F)CC2)cc1 [Example 1.026],0.07

row,Structure (SMILES),IC50 [µM]
1,COC(=O)N1CCC(C2CCN(c3c(C#N)ccc(COC(=O)NC(=N)N)c3F)CC2)CC1 [Example 1.027],0.004
2,N#Cc1ccc(COC(=O)NC(=N)N)c(F)c1N1CCN(c2cccc(F)c2)CC1 [Example 1.028],0.014
3,N#Cc1ccc(COC(=O)NC(=N)N)c(F)c1N1CCC(c2ccccc2)CC1 [Example 1.029],0.071
4,N#Cc1ccc(COC(=O)NC(=N)N)c(F)c1N1CCC(c2nccs2)CC1 [Example 1.030],0.065
5,N#Cc1ccc(COC(=O)NC(=N)N)c(F)c1N1CCC(c2ccc(F)cc2)CC1 [Example 1.031],0.07
6,COc1cnc(C2CCN(c3c(C#N)ccc(COC(=O)NC(=N)N)c3F)CC2)nc1 [Example 1.032],0.11
7,N#Cc1ccc(COC(=O)NC(=N)N)c(F)c1N1CC=C(c2ccc(F)cc2)CC1 [Example 1.033],0.024
8,N#Cc1ccc(COC(=O)NC(=N)N)c(F)c1N1CCC(c2ccc(C(=O)O)cc2)CC1 [Example 1.035],0.004
9,N#Cc1ccc(COC(=O)NC(=N)N)c(F)c1N1CCN(c2nccs2)CC1 [Example 1.036],0.027
10,N#Cc1ccc(COC(=O)NC(=N)N)c(F)c1N1CCC(c2ncc(Cl)cn2)CC1 [Example 1.037],0.054
11,N#Cc1ccc(COC(=O)NC(=N)N)c(F)c1N1CCN(C2CCOCC2)CC1 [Example 1.038],0.579
12,Cc1ccc(N2CCN(c3c(C#N)ccc(COC(=O)NC(=N)N)c3F)CC2)nc1 [Example 1.039],0.042
13,N#Cc1cccc(N2CCN(c3c(C#N)ccc(COC(=O)NC(=N)N)c3F)CC2)c1 [Example 1.040],0.002
14,Cc1ccc(N2CCN(c3c(C#N)ccc(COC(=O)NC(=N)N)c3F)CC2)cc1 [Example 1.041],0.177
15,CS(=O)(=O)c1ccc(N2CCN(c3c(C#N)ccc(COC(=O)NC(=N)N)c3F)CC2)c(F)c1 [Example 1.042],0.046
16,N#Cc1ccc(COC(=O)NC(=N)N)c(F)c1N1CC=C(c2ncco2)CC1 [Example 1.043],0.017
17,CN(C)Cc1ccc(C2CCN(c3c(C#N)ccc(COC(=O)NC(=N)N)c3F)CC2)cc1 [Example 1.044],0.01
18,N#Cc1ccc(N2CCN(c3c(C#N)ccc(COC(=O)NC(=N)N)c3F)CC2)c(F)c1 [Example 1.045],0.029
19,N#Cc1ccc(COC(=O)NC(=N)N)c(F)c1N1CC=C(c2ccccc2)CC1 [Example 1.046],0.027
20,Cc1cccc(C2CCN(c3c(C#N)ccc(COC(=O)NC(=N)N)c3F)CC2)c1 [Example 1.047],0.065
21,COc1ccc(C2CCN(c3c(C#N)ccc(COC(=O)NC(=N)N)c3F)CC2)cc1 [Example 1.048],0.082
22,N#Cc1ccc(COC(=O)NC(=N)N)c(F)c1N1CCC(c2ccc(Cl)cc2)CC1 [Example 1.049],0.102
23,N#Cc1ccc(COC(=O)NC(=N)N)c(F)c1N1CCN(c2ccc(F)cc2)C(=O)C1 [Example 1.050],0.005
24,N#Cc1ccc(COC(=O)NC(=N)N)c(F)c1N1CCN(c2ccccn2)CC1 [Example 1.051],0.271

row,Structure (SMILES),IC50 [µM]
1,Cc1cc(C)cc(N2CCN(c3c(C#N)ccc(COC(=O)NC(=N)N)c3F)CC2)c1 [Example 1.052],0.146
2,N#Cc1ccc(COC(=O)NC(=N)N)c(F)c1N1CCN(C2CCCC2)C(=O)C1 [Example 1.053],0.015
3,N#Cc1ccc(COC(=O)NC(=N)N)c(F)c1N1CCC(C2CCOCC2)CC1 [Example 1.054],0.02
4,N#Cc1ccc(N2CCN(c3c(C#N)ccc(COC(=O)NC(=N)N)c3F)CC2)nc1 [Example 1.055],0.115
5,COc1cnc(N2CCN(c3c(C#N)ccc(COC(=O)NC(=N)N)c3F)CC2)nc1 [Example 1.056],0.015
6,N#Cc1ccc(COC(=O)NC(=N)N)c(F)c1N1CC=C(c2ccc(Cl)cc2)CC1 [Example 1.057],0.006
7,N#Cc1ccc(COC(=O)NC(=N)N)c(F)c1N1CCN(c2ccc(C(N)=O)cc2)CC1 [Example 1.058],0.071
8,N#Cc1ccc(COC(=O)NC(=N)N)c(F)c1N1CCN(c2ccccc2F)CC1 [Example 1.059],0.151
9,CCc1ccc(N2CCN(c3c(C#N)ccc(COC(=O)NC(=N)N)c3F)CC2)cc1 [Example 1.060],0.334
10,COc1cccc(C2=CCN(c3c(C#N)ccc(COC(=O)NC(=N)N)c3F)CC2)c1 [Example 1.061],0.03
11,CN1CCN(C2CCN(c3c(C#N)ccc(COC(=O)NC(=N)N)c3F)CC2)C(=O)C1 [Example 1.062],0.696
12,N#Cc1ccc(COC(=O)NC(=N)N)c(F)c1N1CC=C(c2ncccn2)CC1 [Example 1.063],0.034
13,CN(C)c1ccc(N2CCN(c3c(C#N)ccc(COC(=O)NC(=N)N)c3F)CC2)nn1 [Example 1.064],0.033
14,N#Cc1ccc(COC(=O)NC(=N)N)c(F)c1N1CCN(c2ccccc2)C(=O)C1 [Example 1.065],0.131
15,Cc1cccc(N2CCN(c3c(C#N)ccc(COC(=O)NC(=N)N)c3F)CC2)c1 [Example 1.066],0.02
16,COc1cnc(C2=CCN(c3c(C#N)ccc(COC(=O)NC(=N)N)c3F)CC2)nc1 [Example 1.067],0.077
17,Cc1ccc(N2CCN(c3c(C#N)ccc(COC(=O)NC(=N)N)c3F)CC2)nn1 [Example 1.068],0.055
18,N#Cc1ccc(COC(=O)NC(=N)N)c(F)c1N1CCN(c2ncc(F)cn2)CC1 [Example 1.069],0.027
19,CC1CN(c2c(C#N)ccc(COC(=O)NC(=N)N)c2F)CCN1c1ccccc1 (centres unmarked) [Example 1.070],0.064
20,Cc1cnc(C2=CCN(c3c(C#N)ccc(COC(=O)NC(=N)N)c3F)CC2)o1 [Example 1.071],0.012
21,Cc1ccc(C2CCN(c3c(C#N)ccc(COC(=O)NC(=N)N)c3F)CC2)cc1 [Example 1.072],0.211
22,N#Cc1ccc(COC(=O)NC(=N)N)c(F)c1N1CCN(c2ccc(C(F)(F)F)cc2)CC1 [Example 1.073],0.103
23,COc1ccc(N2CCN(c3c(C#N)ccc(COC(=O)NC(=N)N)c3F)CC2)cc1 [Example 1.074],0.128
